From US8969298B2, “Liquid preparation of physiologically active peptide” (Daiichi Sankyo Co., Ltd., priority 2004, dated 2015)

How the values were obtained:
[1] = Pharmacokinetics of human ghrelin preparations intravenously, subcutaneously or intramuscularly administered to rats (plasma ghrelin by RIA); type: in vivo; conditions: s.c.
Procedure: 7-week old, male SD rats (Charles River Laboratories Japan Inc.) were used. A group of three rats was used for the tests. For intravenous administration, these animals each inserted a polyethylene tube (PE-50, Clay Adams Co., Ltd.) in the femoral artery were used. Preparation No. 2 was administered through the tail vain at a dose of 0.5 mL/kg by using a syringe and a 26 G needle (each available from Terumo Co., Ltd.). Blood samples were collected from the polyethylene tube in the femoral artery before administration and 1, 3, 5, 10, 20, 30, 60, and 90 minutes after administration.
Similarly, these animals inserted a polyethylene tube in the femoral artery were used for subcutaneous administration of Preparation No. 3 in the dorsal skin at a dose of 1 mL/kg using a syringe and a 26 G needle. Blood samples were collected from the polyethylene tube in the femoral artery before administration and 5, 10, 20, and 30 minutes after administration.
To each sample, one-hundredth as much of an EDTA.2Na.2H2O solution and one-fiftieth as much of an AEBSF solution were added immediately after collection of the sample. […]
The plasma samples were then analyzed for the ghrelin levels by radioimmunoassay (RIA) using an anti-ghrelin antibody. […] The supernatant was separated and analyzed for radioactivity by a γ-counter (Packard Instruments Co., Ltd.).
The results shown in FIG. 1 were used to determine the following pharmacokinetic parameters for each injection route: the maximum plasma ghrelin concentration (Cmax) and the time it took before the maximum plasma concentration was reached (T). […] Using the trapezoidal method, the area under the concentration curve (AUC) was also calculated for each injection route. […]
As with the examples of subcutaneous administration, these rats, inserted a polyethylene tube in the femoral artery, were intramuscularly administered Preparations No. 3 and No. 13 in the femoral muscle at a dose of 1 mL/kg, using a syringe and a 26 G needle. The blood samples were collected in the same manner as in Comparative Example 2 and the plasma ghrelin levels were measured by RIA method.

[2] = Pharmacokinetics of ghrelin preparations intravenously or subcutaneously administered to cynomolgus monkeys (plasma ghrelin by ELISA); conditions: cynomolgus monkey, in vivo, sc, read-out: BA of subcutaneously injected ghrelin
Procedure: Preparations No. 5 and No. 33 were subcutaneously administered to separate groups of cynomolgus monkeys and the plasma ghrelin levels were measured. Furthermore, Preparation No. 1 was intravenously administered to another group of cynomolgus monkeys. The plasma ghrelin levels were measured.
Each group consisted of three male monkeys (imported from China) aged 4 to 6 years. Preparations No. 5 and No. 33 were subcutaneously injected in the dorsal skin at a dose of 0.2 mL/body using a syringe and a 26 G needle (each available from Terumo Co., Ltd.).
Using a syringe and a 26 G needle (each available from Terumo Co., Ltd.), Preparation No. 1 was intravenously injected in the forearm vena cephalica at a dose of 2 mL/kg.
In each case, blood samples were collected from the forearm vena cephalica before administration and 5, 10, 15, 30, 40, 60, 90, and 120 minutes after administration. […]
The plasma samples were then analyzed for the ghrelin levels by Enzyme-Linked Immunosolvent Assay (ELISA) using Active Ghrelin ELISA Kit (Cat. No. MM-401, Mitsubishi Kagaku latron Inc.). […]
The results shown in FIG. 7 were used to determine Cmax and Tmax for each liquid preparation. Using the trapezoidal method, the AUC was also calculated for each preparation. […]

**Q.** Which “BA of subcutaneously injected ghrelin” value [1] does the source give for `CCCCCCCC(=O)OC[C@H](NC(=O)[C@H](CO)NC(=O)CN)C(=O)N[C@@H](Cc1ccccc1)C(=O)N[C@@H](CC(C)C)C(=O)N[C@@H](CO)C(=O)N1CCC[C@H]1C(=O)N[C@@H](CCC(=O)O)C(=O)N[C@@H](Cc1cnc[nH]1)C(=O)N[C@@H](CCC(N)=O)C(=O)N[C@@H](CCCNC(=N)N)C(=O)N[C@H](C(=O)N[C@@H](CCC(N)=O)C(=O)N[C@@H](CCC(N)=O)C(=O)N[C@@H](CCCNC(=N)N)C(=O)N[C@@H](CCCCN)C(=O)N[C@@H](CCC(=O)O)C(=O)N[C@@H](CO)C(=O)N[C@@H](CCCCN)C(=O)N[C@@H](CCCCN)C(=O)N1CCC[C@H]1C(=O)N1CCC[C@H]1C(=O)N[C@@H](C)C(=O)N[C@@H](CCCCN)C(=O)N[C@@H](CC(C)C)C(=O)N[C@@H](CCC(N)=O)C(=O)N1CCC[C@H]1C(=O)N[C@@H](CCCNC(=N)N)C(=O)O)C(C)C` [ghrelin] here?
**A.** at most 5%

**Q.** And the BA of ghrelin ([1]; mixed with sodium acetate buffer (pH 4.0))?
**A.** 35.3%

**Q.** And the BA of ghrelin ([1]; mixed with urea as a solubilizing agent)?
**A.** 3.4%

**Q.** What about the bioavailability [2] of the same molecule?
**A.** ≤ 3%
